{"source": "patent US12440466B2", "about": "“Fatty acid derivatives for treating non-alcoholic steatohepatitis” (BASF AS, priority 2017, dated 2025)", "key": {"[1]": {"tested_on": "α-smooth muscle actin (SMA)", "test": "Hepatic α-SMA content by quantitative IHC in ob/ob AMLN mice", "type": "in vivo, mouse", "conditions": "8 weeks; for α-SMA (total and % of fractional area content): vs vehicle", "description": "(§1) Obese diet-induced B6.V-Lepob/Jrj mice (ob/ob) are consistently fibrosis (liver) prone when cholesterol (2%), 40% fat (containing 18% trans-fatty acids) and 20% fructose are added to a high-caloric diet (i.e., AMLN high-fat diet). ob/ob mice on AMLN diet (termed ‘ob/ob AMLN mice’) develop steatohepatitis and fibrosis within a shorter timeframe ([…]) compared with wild-type C57BL/6 mice (AMLN mice) fed the same diet. ob/ob AMLN mice provide an obese diet-induced model of NASH that also allows the study of effects on glycemic control. Development of NASH in the ob/ob AMLN model is confirmed by biopsy.\n(§2) In Biological Examples 10, 13-14, and 16-18, studies were performed in male ob/ob mice (5 weeks old) fed an AMLN high-fat diet for 18 weeks, then randomized into 6 groups (n=10 per group) to receive either Compound A (at 3 different daily doses, 45 mg/kg, 90 mg/kg or 135 mg/kg) via diet, 30 mg/kg bw per day obeticholic acid (OCA) via diet, or no treatment (vehicle) for a further 8 weeks. Assessment of NASH related parameters and fibrosis was made at study end by quantitative immune histochemistry (IHC) measurements."}, "hepatic transcriptome": {"tested_on": "hepatic transcriptome", "test": "Hepatic transcriptome (gene expression probes) in APOE*3.CETP transgenic mice", "type": "in vivo, mouse", "conditions": "Compound A at a fraction of the dose of the omega-3 ethyl esters, data not shown"}, "ob/ob AMLN mice": {"tested_on": "ob/ob AMLN mice", "test": "Plasma triglyceride and total cholesterol levels in ob/ob AMLN mice", "type": "in vivo, mouse", "conditions": "8 weeks", "description": "as §1, §2"}, "TIMP-1a mRNA": {"tested_on": "TIMP-1a mRNA", "test": "Hepatic TIMP-1a mRNA expression by qPCR, CDAA/high-fat diet mouse model", "type": "in vivo", "conditions": "CDAA/high-fat fed mice; Compound A 0.3 mmol/kg bw/day oral; GLP-1a 0.4 mg/kg once weekly i.p.; alone or combined", "description": "(§3) Mice were fed either choline-sufficient (CS) or choline deficient high-fat diets (31% total calories; “CDAA/high-fat”). The NASH inducing diet was instigated 6 weeks prior to the commencement of treatment in order to design the study as a treatment/reversal set-up rather than prophylaxis.\n(§4) Studies were performed in male C56BL/6J mice (9 weeks old). Mice were divided into 6 experimental groups (n=9 per group) containing either CS or CDAA/high-fat diets, as described above. The NASH inducing CDAA/high fat diet was instigated 6 weeks prior to the commencement of treatment in order to assess treatment/reversal rather than prophylaxis. […] Compound A was administered orally as admix to the high-fat diet whilst GLP-1 agonist was delivered via intraperitoneal injection (i.p.). Fibrosis, inflammation and metabolism related transcripts levels were measured by quantitative real-time polymerase chain reaction (qPCR) in isolated liver tissue."}, "APOE*3Leiden.CETP mice": {"tested_on": "APOE*3Leiden.CETP mice", "test": "Hepatic free cholesterol, cholesterol ester and triglyceride content (HPTLC) in APOE*3Leiden.CETP mice", "type": "in vivo, mouse", "conditions": "ApoE*3L-CETP mice, Western diet 0.25% cholesterol, 4 weeks; Compound A LD 0.3 mmol/kg bw/day; EPA/DHA ethyl esters HD 3 mmol/kg bw/day", "from_the_text": "The APOE*3Leiden.CETP double transgenic mouse expresses a variant of the human apolipoprotein E3 (APOE3), the APOE*3Leiden, in addition to the human apolipoprotein C1 (APOC1) and CETP. […] By increasing the cholesterol content of the diet in this model, all the characteristics of human NASH develop.\nIn Biological Example 25, the effects of Compound A alone and in combination with omega-3 fatty acid were studied. APOE*3Leiden.CETP mice were placed on a semi-synthetic high fat diet (24% fat w/w) with […] w/w. After a 4-week run-in period, low-responder mice were removed from the study and the remaining mice were sub-divided into groups of 8 mice each, matched for plasma cholesterol, triglycerides, blood glucose, body weight and age (t=0) and treatment was started. To facilitate mixing of the compounds, sunflower oil was added to a total oil volume of 10 mL/kg diet. Compound A was administered at 0.3 mmol/kg bw/day whilst the omega-3 fatty acid ethyl-esters (85% w/w EPA/DHA ethyl-esters) were administered at 3.0 mmol/kg bw/day. Both Compound A and the omega-3 ethyl esters were administered orally as admix to the high-fat diet. After 4 weeks of treatment, mice were sacrificed by C02 asphyxiation, the liver was collected and the hepatic content of free cholesterol, cholesterol ester and triglyceride were measured after extraction and separation by high performance thin layer chromatography."}, "TNF-α mRNA": {"tested_on": "TNF-α mRNA", "test": "Hepatic TNF-α mRNA expression by qPCR, CDAA/high-fat diet mouse model", "type": "in vivo", "conditions": "CDAA/high-fat fed mice", "from_the_text": "as §3\nAfter 6 weeks of either the CS- or CDAA diet, mice were orally administered Compound A or comparison Compound N, both at 2 doses, 0.15 mmol/kg bw/day (low-dose, LD) and 0.3 mmol/kg bw per day (high-dose, HD). The test substances were administered orally as admix to the high-fat diet. Hepatic fibrosis was assessed by both measurement of hydroxyproline (HYP) content and Sirius Red (SR) morphometry. Fibrosis, inflammation and metabolism related transcripts levels were measured by quantitative real-time polymerase chain reaction (qPCR).\nas §4"}, "[2]": {"tested_on": "LX-2 human hepatic stellate cells", "test": "LX-2 stellate cell proliferation by BrdU incorporation", "type": "cell-based", "conditions": "LX-2 cells, 24 hours", "description": "Stellate cells are resident liver cells and the major cell type involved in the initiation and progression of liver fibrosis. In Biological Example 20, in vitro studies were performed on cultured human stellate cells (LX-2 cells) to assess direct effects of Compound A on these cells. Cells were treated for 24 hours with Compound A (10 μM, 25 μM, 50 μM, or 75 μM) or oleic acid (OA; 75 μM) and bromodeoxyuridine (BrdU) incorporation was assessed to determine effects on proliferation. A MTS (3-(4,5-dimethylthiazol-2-yl)-5-(3-carboxymethoxyphenyl)-2-(4-sulfophenyl)-2H-tetrazolium) assay was used to determine cell viability.\nCell proliferation of LX-2 human hepatic stellate cells treated for 24 hours with 10-75 μM of Compound A or oleic acid (OA) (75 μM) was assessed by BrdU incorporation. The results are normalised mean values ±S.E.M. of 5 independent experiments for icosabutate and 2 independent experiments for OA. […] The reduction in proliferation by Compound A was 25-34% at 24 hours whereas OA had no effect. The comparisons were made by one-way ANOVA with Dunnett's correction for multiple comparisons."}}, "note": "Marks after values point to notes of the source that are not given here."}
{"compound": "CC/C=C\\C/C=C\\C/C=C\\C/C=C\\C/C=C\\CCCCOC(CC)C(=O)O", "note": "(stereo not drawn) [Compound A, 2-((5Z,8Z,11Z,14Z,17Z)-icosa-5,8,11,14,17-pentaenyloxy)butanoic acid]", "values": [{"measurement": "area percentage of α-SMA content compared to pre-treatment biopsy", "setting": "[1]; Compound A 45 mg/kg", "result": "non-significant trend"}, {"measurement": "area percentage of α-SMA content compared to pre-treatment biopsy", "setting": "[1]; Compound A 90 mg/kg", "result": "non-significant trend"}, {"measurement": "α-SMA (total and % of fractional area content)", "setting": "[1]; Compound A 90 mg/kg", "result": "markedly reduced"}, {"measurement": "area percentage of α-SMA content compared to pre-treatment biopsy", "setting": "[1]; Compound A 135 mg/kg", "result": "decreased"}, {"measurement": "α-SMA (total and % of fractional area content)", "setting": "[1]; Compound A 135 mg/kg", "result": "markedly reduced"}, {"measurement": "gene expression probes significantly up- or down-regulated in the liver", "setting": "hepatic transcriptome", "result": "> 1094"}, {"measurement": "plasma total cholesterol levels", "setting": "ob/ob AMLN mice; Compound A 90 mg/kg", "result": "comparable reductions"}, {"measurement": "plasma triglyceride levels", "setting": "ob/ob AMLN mice; Compound A 90 mg/kg", "result": "comparable reductions"}, {"measurement": "plasma total cholesterol levels", "setting": "ob/ob AMLN mice; Compound A 135 mg/kg", "result": "comparable reductions"}, {"measurement": "plasma triglyceride levels", "setting": "ob/ob AMLN mice; Compound A 135 mg/kg", "result": "comparable reductions"}, {"measurement": "TIMP-1a (relative mRNA expression)", "setting": "TIMP-1a mRNA", "result": "2***"}, {"measurement": "Hepatic CE", "setting": "APOE*3Leiden.CETP mice", "result": "17*"}, {"measurement": "Hepatic FC", "setting": "APOE*3Leiden.CETP mice", "result": 9.5}, {"measurement": "Hepatic TG", "setting": "APOE*3Leiden.CETP mice", "result": 58.8}, {"measurement": "TNF-α (relative mRNA expression)", "setting": "TNF-α mRNA; Compound A 0.3 mmol/kg bw/day oral, GLP-1a 0.4 mg/kg once weekly i.p., alone or combined", "result": "0.65***"}, {"measurement": "TNF-a (relative mRNA expression)", "setting": "TNF-α mRNA; HD 0.3 mmol/kg bw per day", "result": "0.65***"}, {"measurement": "TNF-a (relative mRNA expression)", "setting": "TNF-α mRNA; LD 0.15 mmol/kg bw/day", "result": "0.75***"}, {"measurement": "proliferation (BrdU incorporation) compared to OA or vehicle", "setting": "[2]; 25 μM, p<0.005", "result": "less proliferative"}, {"measurement": "proliferation (BrdU incorporation) compared to OA or vehicle", "setting": "[2]; 50 μM, p<0.0001", "result": "less proliferative"}, {"measurement": "proliferation (BrdU incorporation) compared to OA or vehicle", "setting": "[2]; 75 μM, p<0.005", "result": "less proliferative"}, {"measurement": "reduction in proliferation (BrdU incorporation)", "setting": "[2]; Compound A 25-75 μM", "result": "25-34%"}]}
